# Patent publication US5081122A, “Antiglaucoma compositions containing 4-arylcarbonyl-1-(4-morpholinyl)-lower-alkyl)-1H-indoles and method of use thereof” (Sterling Drug Inc., priority 1990, dated 1992)
# pIC50: −log10 of the molar value. Structures can show the parent of a compound that is named as a salt.
# Legend:
# [1] = tested on: intraocular pressure; settings: topical application or systemic injection; literature; cited from earlier work
# [2] = target: T1, cannabinoid receptor binding sites (CP 55940 binding sites) (Rattus norvegicus, UniProt P20272); settings: result in words, literature (Devane et al.), radio-labelled CP 55940; natural and synthetic cannabinoids; cited from earlier work
# T1 construct: from tissue; host or cells: rat brain membranes (inferred from the cited Devane et al. 1988)
# T1 sequence (P20272 whole entry): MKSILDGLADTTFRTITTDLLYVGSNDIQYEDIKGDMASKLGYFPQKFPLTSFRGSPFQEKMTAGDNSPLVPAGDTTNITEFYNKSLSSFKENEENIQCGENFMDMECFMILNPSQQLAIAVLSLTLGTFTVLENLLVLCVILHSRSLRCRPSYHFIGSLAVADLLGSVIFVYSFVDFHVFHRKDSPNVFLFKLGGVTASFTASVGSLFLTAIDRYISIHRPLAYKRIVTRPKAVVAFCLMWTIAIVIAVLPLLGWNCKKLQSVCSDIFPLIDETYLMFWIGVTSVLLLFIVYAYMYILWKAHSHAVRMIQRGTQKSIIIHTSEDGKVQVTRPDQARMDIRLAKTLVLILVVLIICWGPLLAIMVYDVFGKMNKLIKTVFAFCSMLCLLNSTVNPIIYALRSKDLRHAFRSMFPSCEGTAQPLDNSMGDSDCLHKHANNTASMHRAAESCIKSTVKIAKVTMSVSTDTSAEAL
# [3] = target: T1, cannabinoid receptor binding sites (CP 55940 binding sites); assay: CP 55940 binding assay (given "CP 55490 [sic] binding assay" in the source)
# Excerpt: (§1) Med. Assoc. 217, 1392 (1971)]. […] Opth. 7, 921-923 (1975); Green and Pederson, Effect of delta-9 Tetrahydrocannabinol on Aqueous Dynamics and Ciliary Body Permeability in the Rabbit Eye., Exptl. Eye Research 15, 499-507 (1973); Colasanti, Craig and Allara, Intraocular Pressure, Ocular Toxicity and Neurotoxicity after Administration of Cannabinol or Cannabigerol, Exptl. Eye Research 39, 252-259 (1984)]. Similarly, synthetic cannabinoids also reduce intraocular pressure [Green, Symunds, Oliver and Elijah, Intraocular Pressure Following Systemic Administration of Cannabinoids., Curr. Eye Research 2, 247-253 (1982); Tiedeman, Shields, Weber, Crow, Coccetto, Harris and Howes, Ophthalmology, 88, 270-277 (1981); Colasanti et al., supra]. […] 34, 605-613 (1988)]. Natural and synthetic cannabinoids and representative examples of the compounds of the present invention, bind to CP 55940 binding sites. […] It is believed that agonist activity at the cannabinoid receptor mediates the anti-glaucoma actions of cannabinoids, and that agonist activity at this receptor correlates with ocular pressure lowering actions in man.
# The 3-R3 -4-arylcarbonyl-1-[(4-morpholinyl)-lower-alkyl]-1H-indoles of formula I were tested in the mouse vas deferens test and the CP 55490 binding assay. […]
# [4] = target: T2, cannabinoid receptor (Mus musculus, UniProt P47746); assay: mouse vas deferens (MVD) test, inhibition of contractions in vitro; assay type: cell-based; settings: considered active at IC50 of 5.0 μM or less, read-out: MVD IC50 (inhibitory concentration which produces 50% of the maximum response)
# T2 construct: mouse vasa deferentia (MVD) preparation in vitro; from tissue; host or cells: mouse vas deferens
# T2 sequence (P47746 whole entry): as the sequence (P20272 whole entry) above, with E95D counted along it
# Excerpt: as §1
# The 3-R3 -4-arylcarbonyl-1-[(4-morpholinyl)-lower-alkyl]-1H-indoles of formula I were tested in the mouse vas deferens test and the CP 55490 binding assay. The results, expressed as the IC50 in μM (the inhibitory concentration which produces 50% of the maximum response), are given in the following table, the compounds being identified by the example number above where their preparations are described.
SMILES,pIC50 [4],further results
"CCCCCc1cc(O)c2c(c1)OC(C)(C)C1CCC(C)=CC21 (single isomer, unassigned) [delta-9 tetrahydrocannabinol]",–,intraocular pressure [1]: reduces intraocular pressure
"CCCCCCC(C)(C)c1ccc([C@@H]2C[C@H](O)CC[C@H]2CCCO)c(O)c1 [CP 55940, 4-(1,1-dimethylheptyl)-2,3'-dihydroxy-6'alpha-(3-hydroxypropyl)-1',2',3',4',5',6'-hexahydrobiphenyl]",–,binding to CP 55940 binding sites / cannabinoid receptor [2]: binds in a specific and saturable manner
"COc1ccc(C(=O)c2cccc3c2ccn3CCN2CCOCC2)cc1 [Example 1A, 4-(4-methoxybenzoyl)-1-[2-(4-morpholinyl)ethyl]-1H-indole hydrochloride]",7.12,pIC50 [3]: 6.35
"COc1ccc(C(=O)c2cccc3c2ccn3CCCN2CCOCC2)cc1 [Example 1B, 4-(4-methoxybenzoyl)-1-[3-(4-morpholinyl)propyl]-1H-indole hydrochloride]",7.48,–
"O=C(c1cccc2ccccc12)c1cccc2c1ccn2CCN1CCOCC1 [Example 1C, 1-[2-(4-morpholinyl)ethyl]-4-(1-naphthylcarbonyl)-1H-indole p-toluenesulfonate hydrate 3:1]",8.52,–
"O=C(c1ccc2ccccc2c1)c1cccc2c1ccn2CCN1CCOCC1 [Example 1D, 4-(2-naphthylcarbonyl)-1-[2-(4-morpholinyl)ethyl]-1H-indolehydrochloride]",6.79,pIC50 [3]: 6.44
"COc1ccc(C(=O)c2cccc3c2c(C)cn3CCN2CCOCC2)cc1 [Example 1E, 4-(4-methoxybenzoyl)-3-methyl-1-[2-(4-morpholinyl)ethyl)-1H-indole hydrochloride]",5.30,–
